According to patent US11478558B2, “Prostate-specific membrane antigen targeted high-affinity agents for endoradiotherapy of prostate cancer” (The Johns Hopkins University, priority 2017, dated 2022):

Tests used:
[1] = Octanol/water partition coefficient; assay type: physicochemical; conditions: Table 1
[2] = target: PSMA (Homo sapiens (Human), UniProt Q04609); assay: PSMA binding affinity
[3] = system: PSMA(+) PC3 PIP cells; assay: Cell uptake, cell surface binding and internalization in PSMA(+) PC3 PIP cells; assay type: cell-based, human
[4] = system: PSMA+ PC3 PIP tumors; assay: Radiopharmaceutical therapy in PC3 PIP flank tumor growth delay model; assay type: in vivo, NOD/SCID mice
Procedure: A pilot treatment study using NOD/SCID mice (n=10 per group) bearing PSMA+ PC3 PIP tumors with a single intravenous dose of 111 MBq (3 mCi) of agents ^177Lu-PSMA-617, ^177Lu-1, ^177Lu-3 and ^177Lu-5 and the control group (with saline treatment) were performed (Table 8). Volume of the all control group mice reached >5-fold of their initial tumor volume within 14 days. Mouse euthanized for treated group within 4 weeks of post-injection was mainly due to sudden body weight loss and not related to tumor growth. […] The difference among treatment groups was statistically significant (P=0.002) by the log-rank test compared to the untreated group. […] After 8-weeks, three mice from each treated group were used for detailed blood analysis and necropsy study. All animals underwent radiotherapy study had normal creatinine (0.3-0.4 mg/dL) and blood urea nitrogen levels. […] Additionally, a significant lowering of platelet for all three treated mice from ^177Lu-PSMA-617 compared control group and other treated groups.
Median survival for the ^177Lu-PSMA-617 was 133 days vs. 234 days for ^177Lu-1.
The remaining treated mice survived tumor-free for 10 months and were evaluated for toxicity.
Antitumor efficacy studies were performed in PC3 PIP flank tumor growth delay model to evaluate the therapeutic efficacy of a single dose intravenous injection of ^177Lu-L1, ^177Lu-L3, ^177Lu-L5 and ^177Lu-PSMA-617 vs. saline. This was a head-to-head comparison study and same batch of tumor-bearing mice and radioactivity. The study was commenced 14-18 days post-inoculation of the xenografts, when all the mice had tumor volume of about ˜60-85 mm^3 (Table 8). All the living mice were monitored for 8 weeks to monitor the growth delay. Mice body weight and tumor volume were monitored every 3 days throughout the experiment. Endpoint criteria defined by the institute ACUC was weight loss≥15%, a tumor volume>1800 mm^3, active ulceration of the tumor or abnormal behavior indicating pain or unease. After 8-weeks, three mice from each group were submitted for detail necropsy and blood analysis. Mice group treated with ^177Lu-1 and ^177Lu-PSMA-617 were continued to monitor until the endpoint. These definitions were also used for Kaplan-Meier analysis. The probability of reaching 5 times the initial tumor volume was characterized using Kaplan-Meier curves, and comparison was performed using the log-rank test. The formula used for calculation of tumor volume was V=width^2×length/2. Toxicity of the ^177Lu-treatment groups after 8-weeks and in healthy CD-1 (n=3) mice treated with 111 MBq was evaluated by pathologic examination at the Johns Hopkins Pathology Core facility with serum metabolic panel, blood counts, and full necropsy including detailed histopathology of kidneys, salivary glands and lacrimal glands.

[5] = system: PSMA(−) PC3 flu cells; assay: Cell uptake in PSMA(−) PC3 flu cells; assay type: cell-based, human
[6] = Blood analysis and necropsy after radiotherapy; assay type: in vivo, NOD/SCID mice; conditions: one-year post-treatment in tumor-free mice, 111 MBq
[7] = system: PSMA+ PC3 PIP cells; assay: Clonogenic cell survival assay in PSMA+ PC3 PIP cells; assay type: cell-based, human
[8] = system: PSMA(+) PC3 PIP and PSMA(−) PC3 flu tumor xenografts; assay: Biodistribution of 177Lu compounds (Example 5)
[9] = system: PSMA(+) tumors and normal tissues; assay: Self-blocking (receptor blockade) biodistribution; assay type: in vivo, mouse; conditions: at 10-fold kidney blockade
Text: Development of receptor blockade for normal organs. The blocking effect of 1 was quantified in normal tissues using ^177Lu-1. A drastic reduction of renal uptake was observed while maintaining high uptake in PSMA(+) tumors (FIG. 12). […] Blocking strategies. […] These daughters, once formed, are unlikely to associate with the chelate construct due to high atomic recoil-energy as a result of α-decay. Without wishing to be bound to any one particular theory, it is thought that acute salivary gland toxicity caused by ^225Ac-PSMA-617 is most likely due to PSMA-based internalization of the agent followed by daughter release in striated duct or acini. Both biodistribution data and α-camera imaging will be used to interpret the data. Different pharmacologic agents will be evaluated to avoid renal and salivary gland radio toxicity. […]

Sequence of PSMA (Q04609 whole entry): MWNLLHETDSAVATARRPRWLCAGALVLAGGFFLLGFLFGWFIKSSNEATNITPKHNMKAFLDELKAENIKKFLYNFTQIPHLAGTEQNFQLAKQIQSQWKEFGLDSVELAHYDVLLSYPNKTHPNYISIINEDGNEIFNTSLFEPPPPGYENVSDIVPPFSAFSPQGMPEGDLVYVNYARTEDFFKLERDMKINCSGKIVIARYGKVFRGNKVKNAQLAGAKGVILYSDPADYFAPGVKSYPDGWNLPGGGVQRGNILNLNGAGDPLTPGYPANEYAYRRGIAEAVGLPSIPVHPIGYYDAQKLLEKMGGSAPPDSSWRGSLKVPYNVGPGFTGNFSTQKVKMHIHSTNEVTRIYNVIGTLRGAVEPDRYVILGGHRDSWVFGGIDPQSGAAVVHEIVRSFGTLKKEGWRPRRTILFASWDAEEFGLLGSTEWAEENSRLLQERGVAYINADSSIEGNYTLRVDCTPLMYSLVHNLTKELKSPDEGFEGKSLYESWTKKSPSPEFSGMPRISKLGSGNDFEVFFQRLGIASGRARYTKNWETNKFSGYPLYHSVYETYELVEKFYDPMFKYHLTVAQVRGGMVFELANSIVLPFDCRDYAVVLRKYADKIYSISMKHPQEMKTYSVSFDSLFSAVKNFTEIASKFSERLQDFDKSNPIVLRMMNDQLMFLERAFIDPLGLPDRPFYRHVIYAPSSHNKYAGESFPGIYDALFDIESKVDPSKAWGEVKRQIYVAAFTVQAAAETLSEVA

## O=C(O)CC[C@H](NC(=O)N[C@@H](CCCCN(Cc1ccc(Br)cc1)C(=O)CCCCNC(=S)Nc1ccc(CC2CN(CC(=O)O)CCN(CC(=O)O)CCN(CC(=O)O)CCN2CC(=O)O)cc1)C(=O)O)C(=O)O (stereo partly drawn) [Ligand 1, (13S,17S)-8-(4-bromobenzyl)-7,15-dioxo-1-((4-((1,4,7,10-tetrakis(carboxymethyl)-1,4,7,10-tetraazacyclododecan-2-yl)methyl)phenyl)amino)-1-thioxo-2,8,14,16-tetraazanonadecane-13,17,19-tricarboxylic acid]
[1]
  LogPoct/water: −3.0

## O=C(O)CC[C@H](NC(=O)N[C@@H](CCCCN(Cc1ccc(Br)cc1)C(=O)CCCCNC(=O)CN1CCN(CC(=O)O)CCN(CC(=O)O)CCN(CC(=O)O)CC1)C(=O)O)C(=O)O [Ligand 2, (14S,18S)-9-(4-Bromobenzyl)-2,8,16-trioxo-1-(4,7,10-tris(carboxymethyl)-1,4,7,10-tetraazacyclododecan-1-yl)-3,9,15,17-tetraazaicosane-14,18,20-tricarboxylic acid]
[1]
  LogPoct/water: −3.53
[2]; Table 1
  IC50: 0.64 nM
  Ki: 1.28 nM

## O=C(O)CC[C@H](NC(=O)N[C@@H](CCCCNC(=O)CCCCNC(=S)Nc1ccc(CC2CN(CC(=O)O)CCN(CC(=O)O)CCN(CC(=O)O)CCN2CC(=O)O)cc1)C(=O)O)C(=O)O (stereo partly drawn) [Ligand 3, (13S,17S)-7,15-dioxo-1-((4-((1,4,7,10-tetrakis(carboxymethyl)-1,4,7,10-tetraazacyclododecan-2-yl)methyl)phenyl)amino)-1-thioxo-2,8,14,16-tetraazanonadecane-13,17,19-tricarboxylic acid]
[1]
  LogPoct/water: −3.2
[2]; Table 1
  IC50: 2.16 nM
  Ki: 0.43 nM

## O=C(O)CC[C@H](NC(=O)N[C@@H](CCCCN(Cc1ccc(Br)cc1)C(=O)CCCCNC(=S)Nc1ccc(CC2CN(CC(=O)O)CCN(CC(=O)O)CCN(CC(=O)O)CCN2CC(=O)O)cc1)C(=O)O)C(=O)O (stereo partly drawn) [Ligand L8, (13S,17S)-8-(4-bromobenzyl)-7,15-dioxo-1-((4-((1,4,7,10-tetrakis(carboxymethyl)-1,4,7,10-tetraazacyclododecan-2-yl)methyl)phenyl)amino)-1-thioxo-2,8,14,16-tetraazanonadecane-13,17,19-tricarboxylic acid]
[3]
  specific internalization: 20.06 % IA/10^6 cells
[2]; Table 6, given as range
  Ki: 0.08 to 0.16 nM

## O=C(O)CC[C@H](NC(=O)N[C@@H](CCCCN(Cc1ccc(Br)cc1)C(=O)CCCCNC(=O)CCC(C(=O)O)N1CCN(CC(=O)O)CCN(CC(=O)O)CCN(CC(=O)O)CC1)C(=O)O)C(=O)O (stereo partly drawn) [Ligand L9, (3S,7S)-12-(4-Bromobenzyl)-5,13,19-trioxo-22-(4,7,10-tris(carboxymethyl)-1,4,7,10-tetraazacyclododecan-1-yl)-4,6,12,18-tetraazadocosane-1,3,7,22-tetracarboxylic acid]
[3]
  specific internalization: 7.80 % IA/10^6 cells
[2]; Table 6, given as range
  Ki: 0.02 to 0.05 nM

## O=C([O-])CN1CCN(CC(=O)[O-])CCN(CC(=O)NCCCCC(=O)N(CCCC[C@H](NC(=O)N[C@@H](CCC(=O)O)C(=O)O)C(=O)O)Cc2ccc(Br)cc2)CCN(CC(=O)[O-])CC1.[177Lu+3] [^177Lu-L1]
[4]; 111 MBq
  Median survival After 8 weeks post-treatment: Not reached
[4]; 111 MBq, up to week 8 post-treatment
  Mouse death (number of mice): Death 1
[4]; 111 MBq, week 8 post-treatment
  Tumor disappear (number of mice): disappear 7
[4]; single i.v. dose 111 MBq (3 mCi)
  Average final body weight: 26.1 ± 1.4 gram
[5]; 1 h
  Cell uptake PC3 flu: 0.2 ± 0.0 % incubated dose per 1 x 10^6 cells
[5]; 2 h
  Cell uptake PC3 flu: 0.1 ± 0.0 % incubated dose per 1 x 10^6 cells
[5]; 4 h
  Cell uptake PC3 flu: 0.1 ± 0.0 % incubated dose per 1 x 10^6 cells
[5]; 24 h
  Cell uptake PC3 flu: 0.2 ± 0.1 % incubated dose per 1 x 10^6 cells
[6]
  radiation nephropathy at necropsy: did not reveal any radiation nephropathy
[3]; 1 h
  Cell uptake PC3 PIP: 32.1 ± 0.1 % incubated dose per 1 x 10^6 cells
  PC3 PIP cell Int (internalization): 18.8 ± 0.8 % incubated dose per 1 x 10^6 cells
[3]; 1 h, ZJ43 10 μM
  Blockade PC3 PIP: 0.2 ± 0.0 % incubated dose per 1 x 10^6 cells
[3]; 1 h to 24 h
  total uptake within the PSMA(+) PC3 PIP cells: ~30 % of the incubated dose
[3]; 2 h
  Cell uptake PC3 PIP: 36.7 ± 0.5 % incubated dose per 1 x 10^6 cells
  PC3 PIP, line without name (position of cell internalization): 22.0 ± 0.6 % incubated dose per 1 x 10^6 cells
[3]; 4 h
  Cell uptake PC3 PIP: 39.1 ± 0.5 % incubated dose per 1 x 10^6 cells
  PC3 PIP cell int (internalization): 26.6 ± 1.2 % incubated dose per 1 x 10^6 cells
[3]; 24 h
  Cell uptake PC3 PIP: 46.2 ± 0.2 % incubated dose per 1 x 10^6 cells
  PC3 PIP cell int (internalization): 24.6 ± 0.2 % incubated dose per 1 x 10^6 cells

## O=C([O-])CN1CCN(CC(=O)[O-])CCN(CC(=O)O)C(Cc2ccc(NC(=S)NCCCCC(=O)N(CCCC[C@H](NC(=O)N[C@@H](CCC(=O)O)C(=O)O)C(=O)O)Cc3ccc(Br)cc3)cc2)CN(CC(=O)[O-])CC1.[177Lu+3] (stereo partly drawn) [^177Lu-L8]
[4]; 111 MBq, n=10
  mice with tumor growth with relative volume>5 after 8 weeks: only two mice
  tumor-free survival of remaining treated mice: 10 months
  unexpected death of mice (used for SPECT/CT imaging): three mice
[7]; 48 h incubation
  D0 (37% survival): 0.3-0.6 μCi/mL
[7]; incubated for 2 h and 24 h
  Cell surviving fraction: > 0.8
[8]; 2 h
  PSMA(+) PC3 PIP tumor uptake: 55.4±7.2 % ID/g
[8]; 24 h post-injection
  PSMA(+) PC3 PIP tumor uptake: 40.6±7.0 % ID/g
[8]; 48 h
  PSMA(+) PC3 PIP tumor uptake: 27.0±7.0 % ID/g
[8]; fourth time point, time not given
  PSMA(+) PC3 PIP tumor uptake: 24.9±2.3 % ID/g
[3]; all time-points up to 24 h
  fold higher internalization compared to 177Lu-7: > 1.5 fold

## O=C([O-])CN1CCN(CC(=O)[O-])CCN(C(CCC(=O)NCCCCC(=O)N(CCCC[C@H](NC(=O)N[C@@H](CCC(=O)O)C(=O)O)C(=O)O)Cc2ccc(Br)cc2)C(=O)O)CCN(CC(=O)[O-])CC1.[177Lu+3] (stereo partly drawn) [^177Lu-L9]
[8]; 2 h
  Kidney uptake: 149.7±32.0 % ID/g
[8]; 24 h (so in the source)
  Kidney uptake: 5.9±2.7 % ID/g
[8]; within 24 h
  fold renal clearance: ~30 fold
[3]
  cell uptake and internalization: ~70%
[9]
  effect of self-blockade on tumor uptake: significant tumor uptake blockade
